Measured values from the supplement of paper PMC11451515.

How the values were obtained:
Conditions in all cases: 48 h
NOMO1 = experiment: AUC of viability dose-response curve (% viability x log10 dose units); higher = less sensitive
Summary of the method: (§1)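 Area under the curve was integrated by trapezoidal rule from a log-logistic fit of normalised viability, with curves exceeding full viability scaled and quality-control failures removed. The fit had four parameters over log10 doses. Viability came from CellTiter-Glo One luminescence, normalised per plate to DMSO and cell-free wells, after leukemia cells adapted to each medium (500 or 1000 cells/well, 1536-well plates) were exposed to library compounds in DMSO for 48 h at 37°C. The 11 threefold doses ran from 47 μM to 0.79 nM.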

SEM cells [1] = experiment: as above
Summary of the method: as §1

P12-Ichikawa [2] = experiment: as above
Summary of the method: as §1

SEM cells [3] = experiment: cell viability relative to DMSO control; higher = less cytotoxic
Summary of the method: (§2)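 Leukemia cells (NOMO1 or SEM, 500 cells/well; P12-Ichikawa, 1000 cells/well) were seeded in 5 μl in 1536-well plates after at least four passages of adaptation to each medium. They received library compounds in DMSO by pin dosing, 11 threefold points from 47 μM to 0.79 nM. Luminescence with CellTiter-Glo One was read after 48 h at 37°C. Viability is stated per plate relative to DMSO wells, with cell-free wells as background.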

P12-Ichikawa [4] = experiment: as above
Summary of the method: as §2

Cc1cc(Nc2cc(N3CCN(C)CC3)nc(Sc3ccc(NC(=O)C4CC4)cc3)n2)[nH]n1
AUC of viability dose-response curve
Conditions	NOMO1	P12-Ichikawa [2]	SEM cells [1]
HPLM + 10% dialyzed FBS	389	298	304
RPMI 5 mM glucose + 10% FBS	390	302	286
RPMI 5 mM glucose + 10% dialyzed FBS	376	315	286

C=CC(=O)Nc1cc(NC(=O)c2ccc(C)c(NC(=O)c3ccno3)c2)cc(C(F)(F)F)c1
AUC of viability dose-response curve
Conditions	NOMO1	P12-Ichikawa [2]	SEM cells [1]
HPLM + 10% dialyzed FBS	431	459	423
RPMI 5 mM glucose + 10% FBS	457	454	451
RPMI 5 mM glucose + 10% dialyzed FBS	467	452	438

COc1nc(C)cnc1N[S+](=O)([O-])c1cccnc1-c1ccc(-c2nnco2)cc1
AUC of viability dose-response curve
Conditions	HPLM + 10% dialyzed FBS	RPMI 5 mM glucose + 10% FBS	RPMI 5 mM glucose + 10% dialyzed FBS
NOMO1	465	455	474
SEM cells [1]	471	452	460

O=c1cc(-c2ccc(O)c(O)c2)oc2cc(O)cc(O)c12
AUC of viability dose-response curve
Conditions	NOMO1	P12-Ichikawa [2]	SEM cells [1]
HPLM + 10% dialyzed FBS	458	473	449
RPMI 5 mM glucose + 10% FBS	461	464	454
RPMI 5 mM glucose + 10% dialyzed FBS	461	467	459

SEM cells [3], HPLM + 10% dialyzed FBS
Conditions	cell viability [%]
0.000781 µM	107
0.00234 µM	113
0.00702 µM	126
0.0211 µM	127
0.0632 µM	134
0.19 µM	134
0.569 µM	142
1.71 µM	152
5.12 µM	156
15.4 µM	129
46.1 µM	129

CCCCC(C)(C)[C@H](O)/C=C/[C@H]1[C@H](O)CC(=O)[C@@H]1C/C=C\CCCC(=O)O
AUC of viability dose-response curve
Conditions	NOMO1	P12-Ichikawa [2]	SEM cells [1]
HPLM + 10% dialyzed FBS	437	447	401
RPMI 5 mM glucose + 10% FBS	453	437	407
RPMI 5 mM glucose + 10% dialyzed FBS	431	442	403

SEM cells [3], RPMI 5 mM glucose + 10% FBS
Conditions	cell viability [%]
0.000781 µM	101
0.00234 µM	123
0.00702 µM	131
0.0211 µM	120
0.0632 µM	119
0.19 µM	137
0.569 µM	117
1.71 µM	130
5.12 µM	51.5
15.4 µM	78.2
46.1 µM	13.4

Cc1ccc2c(=O)c3cccc(CC(=O)O)c3oc2c1C
AUC of viability dose-response curve
Conditions	NOMO1	P12-Ichikawa [2]	SEM cells [1]
HPLM + 10% dialyzed FBS	435	471	447
RPMI 5 mM glucose + 10% FBS	471	464	440
RPMI 5 mM glucose + 10% dialyzed FBS	429	460	449

ClC/1=C(NCCN2CCOCC2)/C(=O)C3=C(C=CC=N3)C1=O
AUC of viability dose-response curve
Conditions	NOMO1	P12-Ichikawa [2]	SEM cells [1]
HPLM + 10% dialyzed FBS	416	450	410
RPMI 5 mM glucose + 10% FBS	410	445	381
RPMI 5 mM glucose + 10% dialyzed FBS	406	438	392

SEM cells [3], HPLM + 10% dialyzed FBS
Conditions	cell viability [%]
0.000781 µM	104
0.00234 µM	105
0.00702 µM	121
0.0211 µM	118
0.0632 µM	131
0.19 µM	127
0.569 µM	127
1.71 µM	115
5.12 µM	95.4
15.4 µM	35.8
46.1 µM	4.66

COC1=CC=C2[C@H]3CC[C@]4(C)[C@H](CC[C@H]4[C@@H]3CCC2=C1)NCCCCCCN5C(=O)\C=C/C5=O
AUC of viability dose-response curve
Conditions	NOMO1	P12-Ichikawa [2]	SEM cells [1]
HPLM + 10% dialyzed FBS	434	456	472
RPMI 5 mM glucose + 10% FBS	444	448	459
RPMI 5 mM glucose + 10% dialyzed FBS	462	444	408

C[N]1N=C(C)C2=C1OC(=C(/C#N)C2C3=CC=C(C=C3)C(F)(F)F)/N (stereo unspecified)
AUC of viability dose-response curve
Conditions	HPLM + 10% dialyzed FBS	RPMI 5 mM glucose + 10% FBS	RPMI 5 mM glucose + 10% dialyzed FBS
P12-Ichikawa [2]	457	467	454
SEM cells [1]	467	438	439

O=C(N[C@H](CO)[C@H](O)c1ccc([N+](=O)[O-])cc1)C(Cl)Cl
AUC of viability dose-response curve
Conditions	NOMO1	P12-Ichikawa [2]	SEM cells [1]
HPLM + 10% dialyzed FBS	477	471	474
RPMI 5 mM glucose + 10% FBS	467	466	475
RPMI 5 mM glucose + 10% dialyzed FBS	467	462	475

SEM cells [3], HPLM + 10% dialyzed FBS
Conditions	cell viability [%]
0.000781 µM	115
0.00234 µM	119
0.00702 µM	125
0.0211 µM	121
0.0632 µM	126
0.19 µM	125
0.569 µM	128
1.71 µM	132
5.12 µM	128
15.4 µM	118
46.1 µM	113

COc1cc(C(=O)N2CC[C@@H](O)[C@@H](N)C2)cc2nc(-c3cc4ccccc4n3CC3CC3)n(C)c12
AUC of viability dose-response curve
Conditions	NOMO1	P12-Ichikawa [2]	SEM cells [1]
HPLM + 10% dialyzed FBS	294	279	357
RPMI 5 mM glucose + 10% FBS	327	336	276
RPMI 5 mM glucose + 10% dialyzed FBS	338	324	335

cell viability [%]
Conditions	P12-Ichikawa [4]	SEM cells [3]
HPLM + 10% dialyzed FBS, 0.000781 µM	117	97.9
HPLM + 10% dialyzed FBS, 0.00234 µM	116	118
HPLM + 10% dialyzed FBS, 0.00702 µM	123	116
HPLM + 10% dialyzed FBS, 0.0211 µM	121	124
HPLM + 10% dialyzed FBS, 0.0632 µM	121	119
HPLM + 10% dialyzed FBS, 0.19 µM	44.3	117
HPLM + 10% dialyzed FBS, 0.569 µM	31	124
HPLM + 10% dialyzed FBS, 1.71 µM	27.5	51.1
HPLM + 10% dialyzed FBS, 5.12 µM	29	28.6
HPLM + 10% dialyzed FBS, 15.4 µM	23.8	27.4
HPLM + 10% dialyzed FBS, 46.1 µM	18.6	20.1
RPMI 5 mM glucose + 10% FBS, 0.000781 µM	119	–
RPMI 5 mM glucose + 10% FBS, 0.00234 µM	127	–
RPMI 5 mM glucose + 10% FBS, 0.00702 µM	123	–
RPMI 5 mM glucose + 10% FBS, 0.0211 µM	122	–
RPMI 5 mM glucose + 10% FBS, 0.0632 µM	137	–
RPMI 5 mM glucose + 10% FBS, 0.19 µM	117	–
RPMI 5 mM glucose + 10% FBS, 0.569 µM	111	–
RPMI 5 mM glucose + 10% FBS, 1.71 µM	33.4	–
RPMI 5 mM glucose + 10% FBS, 5.12 µM	25.9	–
RPMI 5 mM glucose + 10% FBS, 15.4 µM	21.5	–
RPMI 5 mM glucose + 10% FBS, 46.1 µM	11.2	–

c1nc2c(NC3CCCCC3)nc(Nc3ccc(N4CCOCC4)cc3)nc2[nH]1
AUC of viability dose-response curve
Conditions	NOMO1	P12-Ichikawa [2]	SEM cells [1]
HPLM + 10% dialyzed FBS	403	377	386
RPMI 5 mM glucose + 10% FBS	399	364	364
RPMI 5 mM glucose + 10% dialyzed FBS	405	384	363

cell viability [%], SEM cells [3]
Conditions	HPLM + 10% dialyzed FBS	RPMI 5 mM glucose + 10% FBS
0.000781 µM	121	110
0.00234 µM	118	113
0.00702 µM	114	132
0.0211 µM	120	121
0.0632 µM	131	120
0.19 µM	116	131
0.569 µM	120	111
1.71 µM	112	95.9
5.12 µM	36.8	20.5
15.4 µM	28.4	13.7
46.1 µM	29.3	14.4
